Reference: patent US8962603B2, “Method for post coital contraception in overweight or obese female subjects using ulipristal acetate” (Laboratoire HRA-Pharma, priority 2010, dated 2015)

Tests used:
[1] = system: women requesting emergency contraception after unprotected intercourse; test: Meta-analysis of Phase II and Phase III emergency contraception studies: pregnancy rate by WHO BMI class; assay type: in vivo; details: for Odds Ratio [95% CI]: ulipristal acetate vs levonorgestrel
Protocol: The effect of BMI in pooled phase III studies was assessed by comparing pregnancy rates among sub-groups of the study populations according to WHO weight classes. Pregnancy rates increased starting from BMI>25, and for women with a BMI>30, the 95% CI of the observed pregnancy rate overlapped with the expected pregnancy rate. […] This Phase II, prospective, multicenter, randomized, double-blind study was performed to compare the efficacy of a single 50 mg dose of ulipristal acetate (unmicronized in gelatine capsule) with two 0.75 mg doses of levonorgestrel used as an emergency postcoital contraceptive within 72 hours of unprotected intercourse. The study was carried out in seven sites in seven different states in the United States. Women (aged ≧18 years old) not using hormonal contraception and who requested emergency contraception within 72 hours (3 days) after unprotected coitus defined by lack of contraceptive use, condom breakage or other barrier contraceptive method failure were included. Subjects were required to have a history of regular menstrual cycles (mean length of 24-42 days with intra-individual variation of ±5 days). At least one normal menstrual cycle (two menses) was required after delivery, abortion, or discontinuation of hormonal contraception. Subjects were excluded from the study if they were pregnant at screening or enrollment (assessed by a high-sensitivity urine pregnancy test), pregnant or breastfeeding within the 2 months before screening, using an intra-uterine device (IUD) or female or male sterilization as a contraceptive method, uncertain about the date of the last menstrual period (±3 days), had been nauseated or vomited in the 2 weeks before screening, had used oral glucocorticoid replacement therapy in the year before the screening, or were currently enrolled in any other investigational trial. Each woman returned for a follow-up visit 5 to 7 days after the expected onset of their next menstrual period and a high-sensitivity urine pregnancy test was performed. The primary objective was to compare the efficacy, as determined by pregnancy prevention, of 50 mg ulipristal acetate and levonorgestrel used as an emergency postcoital contraceptive within 72 hours of unprotected intercourse. […] This was a prospective, single-blind (subject and sponsor blind, investigator not blind), randomized, multicenter, 2-arm parallel comparative study designed to evaluate the efficacy, safety and tolerability of a single dose of ulipristal acetate (30 mg) compared to levonorgestrel (1.5 mg) administered for EC within 120 hours after unprotected intercourse. It was performed in 10 centers in Europe and 25 centers in the US. Women (aged ≧16 years), with regular menstrual cycles (between 24 and 35 days and intra-individual variations less than or equal to 5 days), who presented for EC within 120 hours after unprotected intercourse at a participating study site and who met the inclusion/exclusion criteria were enrolled into the study after they signed informed consent form. Subjects were excluded from the study in case of ongoing pregnancy or breast-feeding or current use of hormonal contraception or IUD. The study medication (ulipristal acetate 30 mg or levonorgestrel 1.5 mg) was administered according to a random allocation procedure generated electronically. Treatment was administered orally immediately after all eligibility criteria (including negative urine pregnancy test) had been verified. […] The primary objective of the study was to provide evidence that the pregnancy rate observed after taking ulipristal acetate (30 mg) within 72 hours of unprotected intercourse is lower than the expected pregnancy rate in the absence of EC. […]

[2] = used within 72 hours of UPI; cited from earlier work
[3] = in vivo; cited from earlier work
[4] = BMI class (WHO) Normal weight (18.5 to 24.99), N=2087
[5] = BMI class (WHO) Obese grade I (30 to 34.99), N=285
[6] = BMI class (WHO) Obese grade II (35 to 39.99), N=107
[7] = BMI class (WHO) Obese grade III (≧40), N=77
[8] = BMI class (WHO) Overweight (25 to 29.99), N=744
[9] = BMI class (WHO) Underweight (<18.5), N=145
[10] = grouped BMI class Obese II and more, N=184
[11] = grouped BMI class Overweight & Obese I, N=1029
[12] = grouped BMI class Underweight & Normal, N=2232

SMILES	Pregnancy rate [1, 4]	Pregnancy rate [1, 5]	Pregnancy rate [1, 6]	Pregnancy rate [1, 7]	Pregnancy rate [1, 8]	Pregnancy rate [1, 9]	Pregnancy rate [1, 10]	Pregnancy rate [1, 11]	Pregnancy rate [1, 12]	efficacy by BMI group ([1]; obese grade II (BMI 35 and above) subjects)	Odds Ratio [95% CI] ([1]; Obese II and more, CI [0.23, 4.44], NS)	Odds Ratio [95% CI] ([1]; Overweight & Obese I, CI [0.11, 0.74], p = 0.0073)	Odds Ratio [95% CI] ([1]; Underweight & Normal, CI [0.37, 1.73], NS)	efficacy by BMI group ([1]; underweight and normal (BMI below 25) and overweight and obese grade I (BMI 25-34.99) subjects)	risk of pregnancy divided by (ulipristal acetate versus levonorgestrel) ([1]; women overweight or with grade I obesity (BMI 25-34.99), p=0.0073)	efficacy versus levonorgestrel ([1]; women with a BMI>25)	efficacy for preventing pregnancy versus levonorgestrel [2]	effect on ovulation [3]
C#C[C@]1(O)CC[C@H]2[C@@H]3CCC4=CC(=O)CC[C@@H]4[C@H]3CC[C@@]21CC [Levonorgestrel, levonorgestrel]	1.33%	6.71%	3.85%	4.88%	2.45%	1.43%	4.30%	3.68%	1.34%	–	–	–	–	–	–	–	–	–
CC(=O)O[C@]1(C(C)=O)CC[C@H]2[C@@H]3CCC4=CC(=O)CCC4=C3[C@@H](c3ccc(N(C)C)cc3)C[C@@]21C [Ulipristal acetate, 17α-acetoxy-11β-[4-N,N-dimethylamino-phenyl)-19-norpregna-4,9-diene-3,20-dione]	1.16%	1.47%	3.64%	5.56%	1.06%	0%	4.40%	1.17%	1.08%	decreased	1.02	0.31	0.81	remained constant	3	significantly more effective than levonorgestrel	as efficacious as levonorgestrel	inhibits or delays ovulation in a dose-dependent fashion
